Source: article PMC6736837, “^18F-labelled triazolyl-linked argininamides targeting the neuropeptide Y Y1R for PET imaging of mammary carcinoma” (Scientific Reports, 2019)

Assays:
[1] = Radioactive metabolites of Y1R radioligands in mouse blood; type: in vivo; details: for stability in the blood in vivo (in words): mouse blood samples taken early after radiotracer injection; for intact radioligand in blood samples: 5 min p.i.
Method: Nude mice were anesthetised with isoflurane and injected with the respective radiotracer (3–25 MBq) into the tail vein. After 5 min, animals were sacrificed by cervical dislocation and approx. 100 µL blood were collected from the abdomen and transferred into Li-heparinised Microvettes® (100 LH, Sarstedt). The same volume of aqueous urea (0.8 g/mL) was added and the Microvette® was centrifuged (2000 × g, 5 min). The supernatant was transferred to a 1.5 mL reaction vial, mixed with the same volume of 10% aqueous TFA and centrifuged (20000 × g, 5 min). This step was repeated once. A sample of the resulting supernatant (100 µL) was analysed by radio-HPLC using two methods (Chromolith RP-18e, 100 × 4.6 mm, 4 mL/min, 0–1 min 25% CH3CN (0.1%TFA) in water (0.1%TFA), 1–6 min 25–60%, 6–7 min 60–100%, 7–8 min 100%; Kromasil 100 C8 5 µm, 250 × 4.6 mm, 1.5 mL/min, 1–25 min 20–53.3% CH3CN (0.1% TFA) in water (0.1% TFA), 25–27 min 53.3–80%, 27–28 min 80–100%, 28–32 min 100%).

MCF-7-Y1 cells = assay: Cellular accumulation assay in MCF-7-Y1 cells; type: cell-based, human; details: nonspecific binding with 10 µM BIBP3226; [^18F]12 at 30 and 60 min
Method: MCF-7-Y1 is a subclone that originated in Prof. […] MCF-7-Y1 cells were cultivated in MEM Earle´s liquid medium with 2.2 g/L NaHCO3 (Merck Biochrom, Darmstadt) containing 10% FBS and 1% L-glutamine. All cells were cultured under sterile conditions in a humidified atmosphere containing 5% CO2 at 37 °C. Cells were routinely passaged twice a week.
The cellular accumulation of Y1R radioligands by MCF-7-Y1 cells was measured: On the day prior to the experiment, 300,000 cells per well were seeded into 24-well plates (Greiner Bio-One). Attached cells were washed twice with cold PBS and 450 µL of assay medium (cell culture medium containing 0.1% BSA) were added to the cells for total binding. For non-specific binding, 400 µL of assay medium and 50 µL of medium containing 10 µM BIBP3226 were added. Finally, 50 µL of medium containing approx. 15 kBq of the respective radiotracer were added to each well, and cells were incubated at 37 °C for 10, 30, 60 or 90 min. After incubation, cells were washed with 500 µL of ice-cold PBS and lysed with 600 µL of warm 1 M NaOH. The lysed cells were transferred to counting tubes and analysed in the γ-counter (Wallac Wizard, Perkin Elmer, Waltham, MA, USA). Separate tubes containing 50 µL of medium with the radiotracer (approx. 15 kBq) were analysed as reference samples. Experiments were performed in sextuplicate (n = 6).

[2] = Radiotracer stability in human serum by radio-HPLC; type: in vitro ADME; details: 37 °C
Method: The stability of ^18F-labelled compounds was determined in human serum. An aliquot of the radiotracer (5–10 MBq) was added to 200 µL human serum and incubated at 37 °C. Aliquots of 15 µL were taken after 5, 10, 15, 30, 45, 60, 120 and 180 min and quenched in 100 µL of 10% aqueous TFA. The samples were centrifuged (20000 × g, 2 min), and the supernatants were analysed by radio-HPLC (Chromolith RP-18e, 100 × 4.6 mm, 4 mL/min, 0–1 min 25% CH3CN (0.1% TFA) in water (0.1% TFA), 1–6 min 25–60%, 6–7 min 60–100%, 7–8 min 100%).

stability in the blood in vivo (in words) [1]	intact radioligand in blood samples ([1]; mouse)	Stability over 3 h in human serum [2]	radiometabolites in the blood ([1]; mouse)	SMILES	specific accumulation in MCF-7-Y1 cells (total radioactivity in each well = 100%) (MCF-7-Y1 cells)
higher stability in the blood in vivo	about 50%	>99%		N/C(=N/C(=O)NCc1cn([C@@H]2OC(C[18F])[C@@H](O)C(O)C2O)nn1)NCCC[C@@H](NC(=O)C(c1ccccc1)c1ccccc1)C(=O)NCc1ccc(O)cc1 (stereo partly drawn) [[^18F]11, (2R)‐5‐{[(1Z)‐Amino({[({1‐[(2R,5S)‐6‐([^18F]fluoromethyl)‐3,4,5‐trihydroxyoxan‐2‐yl]‐1H‐1,2,3‐triazol‐4‐yl}methyl)carbamoyl]imino})methyl]amino}‐2‐(2,2‐diphenylacetamido)‐N‐[(4‐hydroxyphenyl)-methyl]pentanamide]	almost no specific binding
underwent rapid degradation in the blood	less than 5%	>99%	> 90%	N/C(=N/C(=O)NCc1cn(CCOCCOCCOCC[18F])nn1)NCCC[C@@H](NC(=O)C(c1ccccc1)c1ccccc1)C(=O)NCc1ccc(O)cc1 [[^18F]13, (2R)‐5‐{[(1Z)‐Amino[({[1‐(2‐{2‐[2‐(2‐[^18F]fluoroethoxy)ethoxy]ethoxy}ethyl)‐1H‐1,2,3‐triazol‐4‐yl]methyl}carbamoyl)imino]methyl]amino}‐2‐(2,2‐diphenylacetamido)‐N‐[(4‐hydroxyphenyl)-methyl]pentanamide]	1%
